Experimental data taken from US20260274866A1, “PYRIDO[4,3-D]PYRIMIDINE DERIVATIVES AS MUTANT KRAS G12C INHIBITORS FOR THE TREATMENT OF CANCER” (Frontier Medicines Corporation, priority 2023, published 2026).
Blank lines part the entries; values can stand above or below the molecule they belong to.

Biological target: T1, KRAS G12C (GMPPNP-loaded) and cRAF (Ras-binding domain) interaction (Homo sapiens, UniProt P01116, C118S/C51S/C80L/G12C)
T1 construct: truncated version comprising amino acids 1-169
T1 sequence (P01116 1-169 isoform P01116-2 G12C/C51S/C80L/C118S): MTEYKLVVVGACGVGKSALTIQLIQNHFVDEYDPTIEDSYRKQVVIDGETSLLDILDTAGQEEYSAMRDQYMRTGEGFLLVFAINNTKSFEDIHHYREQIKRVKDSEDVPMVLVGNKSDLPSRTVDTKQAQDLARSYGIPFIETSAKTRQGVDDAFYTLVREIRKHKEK
Assay: AlphaScreen inhibition of KRAS G12C and cRAF binding
Format: biochemical
Conditions: KRAS G12C preloaded with GTP analogue GMPPNP, 2 hours preincubation
Description: The AlphaScreen technology was used to determine IC50s for compound inhibition of KRAS G12C (present as the Cys-light (C51S, C80L and C118S), truncated version comprising amino acids 1-169) and cRAF interaction. Compounds were diluted in 100% DMSO and each compound concentration was spotted at 200 nl/well onto low volume, white 384 well plates. The KRAS G12C contained a biotin-AviTag and the cRaf, as Ras-binding domain (amino acids 50-131, RBD), was GST-tagged. KRAS G12C was preloaded with the GTP analogue Guanosine 5′-[β,γ-imido]triphosphate (GMPPNP). The KRAS G12C was diluted in 25 mM Hepes, pH 7.4, 150 mM NaCl, 5 mM MgCl2, 0.01% TritonX-100 and 10 μM GMPPNP and added at 10 ul/well to compound-spotted plates resulting in a DMSO concentration of 2%. Plates were incubated for 2 hours. A mixture of RBD and the AlphaScreen streptavidin donor and glutathione acceptor beads diluted in 25 mM Hepes, pH 7.4, 150 mM NaCl, 5 mM MgCl2, 0.01% TritonX-100 and 2% DMSO was then added at 10 ul/well and incubated for 60-90 minutes before the samples were read for emission at 570 nm after excitation of the donor beads at 680 nm. All incubations were performed at room temperature. The final top compound concentration was 50 μM with 1:3 titrations for 10-point dose response curves. Final assay conditions were 0.5 nM KRAS G12C, 0.75 nM RBD and 5 ug/ml each of AlphaScreen donor and acceptor beads. IC50s were determined using nonlinear regression fit of [inhibitor] vs. response (4 parameters).
A counter assay was also set up to rule out inhibitors of the AlphaScreen technology itself. Compound plates were incubated for 2 hours as above with buffer only. The AlphaScreen beads were added as above except biotin-AviTag-GST was substituted for the RBD. Samples were read and analyzed as above.

SMILES: CC(/C=C/C(=O)N1CCN(c2nc(OC[C@@]34CCCN3C[C@H](F)C4)nc3c(F)c(-c4cccc5cccc(Cl)c45)ncc23)C[C@@H]1CC#N)N1[C@@H]2CC[C@H]1COC2 (stereo partly shown) [Compound 17]
- IC50: < 10 nM

SMILES: C[C@@H](/C=C/C(=O)N1CC[C@@H](N(C)c2nc(OC[C@@]34CCCN3C[C@H](F)C4)nc3c(F)c(-c4cccc5ccc(F)c(Cl)c45)ncc23)C1)N(C)C [Compound 18]
- IC50: ≥ 500 nM

SMILES: C[C@H](/C=C/C(=O)N1CC[C@@H](N(C)c2nc(OC[C@@]34CCCN3C[C@H](F)C4)nc3c(F)c(-c4cccc5cccc(Cl)c45)ncc23)C1)N1CCC1 [Compound 12]
- IC50: 10 to 100 nM

SMILES: CO[C@@H]1CCN(C(C)/C=C/C(=O)N2CCN(c3nc(OC[C@@]45CCCN4C[C@H](F)C5)nc4c(F)c(-c5cccc6ccc(F)c(Cl)c56)ncc34)C[C@@H]2CC#N)C1 (stereo partly shown) [Compound 14]
- IC50: < 10 nM

SMILES: C[C@H](/C=C/C(=O)N1CCN(c2nc(OCC34CCCN3CCC4)nc3c2CCN(c2cccc4cccc(Cl)c24)C3)C[C@@H]1CC#N)N1CCOCC1 [Compound 21]
- IC50: 10 to 100 nM

SMILES: C[C@H](/C=C/C(=O)N1CCN(c2nc(OCC34CCCN3CCC4)nc3c2CCN(c2cccc4cccc(Cl)c24)C3)C[C@@H]1CC#N)N(C)C [Compound 4]
- IC50: < 10 nM

SMILES: C[C@@H](/C=C/C(=O)N1CCN(c2nc(OCC34CCCN3CCC4)nc3c2CCN(c2cccc4cccc(Cl)c24)C3)C[C@@H]1CC#N)N1CCOCC1 [Compound 22]
- IC50: 10 to 100 nM

SMILES: CO[C@H]1CCN([C@@H](C)/C=C/C(=O)N2CCN(c3nc(OC[C@@]45CCCN4C[C@H](F)C5)nc4c(F)c(-c5cccc6ccc(F)c(Cl)c56)ncc34)C[C@@H]2CC#N)C1 [Compound 19, 2-((S)-4-(7-(8-chloro-7-fluoronaphthalen-1-yl)-8-fluoro-2-(((2R,7aS)-2-fluorotetrahydro-1H-pyrrolizin-7a(5H)-yl)methoxy)pyrido[4,3-d]pyrimidin-4-yl)-1-((S,E)-4-((S)-3-methoxypyrrolidin-1-yl)pent-2-enoyl)piperazin-2-yl)acetonitrile]
- IC50: 10 to 100 nM

SMILES: C[C@H](/C=C/C(=O)N1CC[C@@H](N(C)c2nc(OC[C@@]34CCCN3C[C@H](F)C4)nc3c(F)c(-c4cccc5ccc(F)c(F)c45)ncc23)C1)N(C)C [Compound 7, (R,E)-1-((R)-3-((7-(7,8-difluoronaphthalen-1-yl)-8-fluoro-2-(((2R,7aS)-2-fluorotetrahydro-1H-pyrrolizin-7a(5H)-yl)methoxy)pyrido[4,3-d]pyrimidin-4-yl)(methyl)amino)pyrrolidin-1-yl)-4-(dimethylamino)pent-2-en-1-one]
- IC50: 100 to 500 nM

SMILES: C[C@H](/C=C/C(=O)N1C[C@H](F)[C@@H](N(C)c2nc(OC[C@@]34CCCN3C[C@H](F)C4)nc3c(F)c(-c4cccc5cccc(Cl)c45)ncc23)C1)N(C)C [Compound 9]
- IC50: 10 to 100 nM

Results, then the molecule that gave them:

- IC50: 10 to 100 nM
SMILES: C[C@H](/C=C/C(=O)N1CCN(c2nc(OC[C@@]34CCCN3C[C@H](F)C4)nc3c(F)c(-c4cccc(Cl)c4C(F)(F)F)ncc23)C[C@@H]1CC#N)N(C)C [Compound 46, 2-((S)-4-(7-(3-chloro-2-(trifluoromethyl)phenyl)-8-fluoro-2-(((2R,7aS)-2-fluorotetrahydro-1H-pyrrolizin-7a(5H)-yl)methoxy)pyrido[4,3-d]pyrimidin-4-yl)-1-((R,E)-4-(dimethylamino)pent-2-enoyl)piperazin-2-yl)acetonitrile]

- IC50: ≥ 500 nM
SMILES: C[C@@H](/C=C/C(=O)N1CCN(c2nc(OC[C@@]34CCCN3C[C@H](F)C4)nc3c(F)c(-c4cccc(Cl)c4C(F)(F)F)ncc23)C[C@@H]1CC#N)N(C)C [Compound 47, 2-((S)-4-(7-(3-chloro-2-(trifluoromethyl)phenyl)-8-fluoro-2-(((2R,7aS)-2-fluorotetrahydro-1H-pyrrolizin-7a(5H)-yl)methoxy)pyrido[4,3-d]pyrimidin-4-yl)-1-((S,E)-4-(dimethylamino)pent-2-enoyl)piperazin-2-yl)acetonitrile]

- IC50: 10 to 100 nM
SMILES: C[C@H](/C=C/C(=O)N1CCN(c2nc(OC[C@@]34CCCN3C[C@H](F)C4)nc3c(F)c(-c4cccc(Cl)c4C4CC4)ncc23)C[C@@H]1CC#N)N(C)C [Compound 44, 2-((S)-4-(7-(3-chloro-2-cyclopropylphenyl)-8-fluoro-2-(((2R,7aS)-2-fluorotetrahydro-1H-pyrrolizin-7a(5H)-yl)methoxy)pyrido[4,3-d]pyrimidin-4-yl)-1-((R,E)-4-(dimethylamino)pent-2-enoyl)piperazin-2-yl)acetonitrile]

- IC50: 10 to 100 nM
SMILES: CC(/C=C/C(=O)N1CCN(c2nc(OC[C@@]34CCCN3C[C@H](F)C4)nc3c(F)c(-c4cccc5cccc(Cl)c45)ncc23)C[C@@H]1CC#N)N1CC[C@H](F)C1 (stereo partly shown) [Compound 28]

- IC50: 10 to 100 nM
SMILES: C[C@@H](/C=C/C(=O)N1CCN(c2nc(OC[C@@]34CCCN3C[C@H](F)C4)nc3c(F)c(-c4cccc5cccc(Cl)c45)ncc23)C[C@@H]1CC#N)N1C[C@@H]2C[C@H]1CO2 [Compound 41]

- IC50: 10 to 100 nM
SMILES: C[C@H](/C=C/C(=O)N1CCN(c2nc(OC[C@@]34CCCN3C[C@H](F)C4)nc3c(F)c(-c4cccc5cccc(Cl)c45)ncc23)C[C@@H]1CC#N)N1CC2CC(C1)O2 [Compound 36]

- IC50: 10 to 100 nM
SMILES: CC(/C=C/C(=O)N1CCN(c2nc(OC[C@@]34CCCN3C[C@H](F)C4)nc3c(F)c(-c4cccc5cccc(Cl)c45)ncc23)C[C@@H]1CC#N)N1CC2CCC(C1)O2 (stereo partly shown) [Compound 33]

- IC50: 10 to 100 nM
SMILES: CC(/C=C/C(=O)N1CCN(c2nc(OC[C@@]34CCCN3C[C@H](F)C4)nc3c(F)c(-c4cccc5cccc(Cl)c45)ncc23)C[C@@H]1CC#N)N1CC2CC(C1)O2 (stereo partly shown) [Compound 34]

- IC50: 100 to 500 nM
SMILES: C[C@H](/C=C/C(=O)N1CCN(c2nc(OC[C@@]34CCCN3C[C@H](F)C4)nc3c(F)c(-c4cccc5cccc(Cl)c45)ncc23)C[C@@H]1CC#N)N1CC2CCC(C1)O2 [Compound 42]
